Laboratory results: patent publication US6355799B1, “Substituted benzene compounds, process for their preparation, and herbicidal and defoliant compositions containing them” (ISK Americas Incorporated, priority 1997, dated 2002)

How the values were obtained:
Format in all cases: in vivo
[1] = system: redroot pigweed (Amaranthus retroflexus, AMARE); assay: Pre-emerge test, greenhouse herbicide activity screening; settings: for Pre-emerge herbicidal activity, phytotoxicity rating AMARE: rating scale 0-100, 14 days after application
In short: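 Visual ratings on a 0-100 scale (0 no damage, 100 all plants dead) were taken at 14 days after treatment. Rates of 15-1000 g ai/ha in acetone, 187 l/ha, were sprayed onto soil one day after planting (pre-emerge) or onto 2-3 leaf plants with 0.25% v/v surfactant (post-emerge).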

[2] = system: barnyardgrass (Echinochloa crus-galli, ECHCG); assay: as above; settings: for Pre-emerge herbicidal activity, phytotoxicity rating ECHCG: rating scale 0-100, 14 days after application
In short: (§1)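 Fourteen days after spraying, crop and weed injury was graded visually from 0, no effect, to 100, every plant dead. Test substances were dissolved in acetone and applied at 15–1000 g ai/ha with a flat-fan nozzle. Application was either pre-emergence, one day after sowing, or post-emergence at the 2–3 leaf stage.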

[3] = system: green foxtail (Setaria viridis, SETVI); assay: as above; settings: for Pre-emerge herbicidal activity, phytotoxicity rating SETVI: rating scale 0-100, 14 days after application
In short: as §1

[4] = system: ivyleaf morningglory (Ipomoea hederacea, IPOHE); assay: as above; settings: for Pre-emerge herbicidal activity, phytotoxicity rating IPOHE: rating scale 0-100, 14 days after application
In short: as §1

[5] = system: johnsongrass (Sorghum halepense, SORHA); assay: as above; settings: for Pre-emerge herbicidal activity, phytotoxicity rating SORHA: rating scale 0-100, 14 days after application
In short: as §1

[6] = system: lambsquarters (Chenopodium album, CHEAL); assay: as above; settings: for Pre-emerge herbicidal activity, phytotoxicity rating CHEAL: rating scale 0-100, 14 days after application
In short: as §1

[7] = system: large crabgrass (Digitaria sanguinalis, DIGSA); assay: as above; settings: for Pre-emerge herbicidal activity, phytotoxicity rating DIGSA: rating scale 0-100, 14 days after application
In short: as §1

[8] = system: sicklepod (Cassia obtusifolia, CASOB); assay: as above; settings: for Pre-emerge herbicidal activity, phytotoxicity rating CASOB: rating scale 0-100, 14 days after application
In short: as §1

[9] = system: velvetleaf (Abutilon theophrasti, ABUTH); assay: as above; settings: for Pre-emerge herbicidal activity, phytotoxicity rating ABUTH: rating scale 0-100, 14 days after application
In short: as §1

[10] = system: field corn (Zea mays L., var. Dekalb 535, CORN); assay: Pre-emerge test, crop safety; settings: for Pre-emerge phytotoxicity rating, crop damage CORN: rating scale 0-100, 14 days after application
In short: (§2)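 Compounds in acetone were track-sprayed at 15-1000 g ai/ha (187 l/ha) on sandy loam pots: pre-emerge one day after seeding, post-emerge at 2-3 leaf stage with 0.25% v/v non-ionic surfactant. Phytotoxicity was rated 14 days later on a 0 (no damage) to 100 (complete death) scale.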

[11] = system: upland rice (Oryza sp., var. Tebonnet, RICE); assay: Pre-emerge test, crop safety; settings: for Pre-emerge phytotoxicity rating, crop damage RICE: rating scale 0-100, 14 days after application
In short: as §2

[12] = system: barnyardgrass (Echinochloa crus-galli, ECHCG); assay: Post-emerge test, greenhouse herbicide activity screening; settings: post-emerge, phytotoxicity rating 0-100 at 14 days after application
In short: (§3)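 Applied at 15–1000 g ai/ha from acetone in 187 l/ha spray volume. Post-emergence applications included 0.25% v/v non-ionic surfactant and reached plants sown 8–21 days before. Pre-emergence applications were incorporated by surface watering. Efficacy or crop damage was rated on a 0–100 scale after 14 days.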

[13] = system: green foxtail (Setaria viridis, SETVI); assay: as above; settings: post-emerge, phytotoxicity rating 0-100 at 14 days after application
In short: as §3

[14] = system: ivyleaf morningglory (Ipomoea hederacea, IPOHE); assay: as above; settings: post-emerge, phytotoxicity rating 0-100 at 14 days after application
In short: as §3

[15] = system: johnsongrass (Sorghum halepense, SORHA); assay: as above; settings: post-emerge, phytotoxicity rating 0-100 at 14 days after application
In short: as §3

[16] = system: lambsquarters (Chenopodium album, CHEAL); assay: as above; settings: post-emerge, phytotoxicity rating 0-100 at 14 days after application
In short: as §3

[17] = system: large crabgrass (Digitaria sanguinalis, DIGSA); assay: as above; settings: post-emerge, phytotoxicity rating 0-100 at 14 days after application
In short: as §3

[18] = system: redroot pigweed (Amaranthus retroflexus, AMARE); assay: as above; settings: post-emerge, phytotoxicity rating 0-100 at 14 days after application
In short: as §3

[19] = system: sicklepod (Cassia obtusifolia, CASOB); assay: as above; settings: post-emerge, phytotoxicity rating 0-100 at 14 days after application
In short: as §3

[20] = system: velvetleaf (Abutilon theophrasti, ABUTH); assay: as above; settings: post-emerge, phytotoxicity rating 0-100 at 14 days after application
In short: as §3

[21] = system: field corn (Zea mays L., var. Dekalb 535, CORN); assay: Post-emerge test, crop safety; settings: post-emerge, crop damage rating 0-100 at 14 days after application
In short: as §1

[22] = system: upland rice (Oryza sp., var. Tebonnet, RICE); assay: Post-emerge test, crop safety; settings: post-emerge, crop damage rating 0-100 at 14 days after application
In short: as §1

[23] = pre-emerge, rate 63 g ai/ha, phytotoxicity rating 0-100 at 14 days after application
[24] = crop damage, pre-emerge, rate 63 g ai/ha, phytotoxicity rating 0-100 at 14 days after application

Structure (SMILES): Nc1c(O)c(Cl)cc(F)c1N1C(=O)C2CCCCN2C1=S (single isomer, unassigned) [12-2]
- Pre-emerge herbicidal activity, phytotoxicity rating AMARE ([1]; 250 g ai/ha): 100
- Pre-emerge Herbicidal Activity AMARE [1, 23]: 100
- Pre-emerge herbicidal activity, phytotoxicity rating ECHCG ([2]; 250 g ai/ha): 99
- Pre-emerge Herbicidal Activity ECHCG [2, 23]: 40
- Pre-emerge herbicidal activity, phytotoxicity rating SETVI ([3]; 250 g ai/ha): 100
- Pre-emerge Herbicidal Activity SETVI [3, 23]: 95
- Pre-emerge herbicidal activity, phytotoxicity rating IPOHE ([4]; 250 g ai/ha): 100
- Pre-emerge Herbicidal Activity IPOHE [4, 23]: 95
- Pre-emerge herbicidal activity, phytotoxicity rating SORHA ([5]; 250 g ai/ha): 100
- Pre-emerge Herbicidal Activity SORHA [5, 23]: 90
- Pre-emerge herbicidal activity, phytotoxicity rating CHEAL ([6]; 250 g ai/ha): 100
- Pre-emerge Herbicidal Activity CHEAL [6, 23]: 100
- Pre-emerge herbicidal activity, phytotoxicity rating DIGSA ([7]; 250 g ai/ha): 100
- Pre-emerge Herbicidal Activity DIGSA [7, 23]: 95
- Pre-emerge herbicidal activity, phytotoxicity rating CASOB ([8]; 250 g ai/ha): 100
- Pre-emerge Herbicidal Activity CASOB [8, 23]: 99
- Pre-emerge herbicidal activity, phytotoxicity rating ABUTH ([9]; 250 g ai/ha): 100
- Pre-emerge Herbicidal Activity ABUTH [9, 23]: 100
- Pre-emerge phytotoxicity rating, crop damage CORN ([10]; 250 g ai/ha): 99
- Pre-emerge Herbicidal Activity CORN [10, 24]: 40
- Pre-emerge phytotoxicity rating, crop damage RICE ([11]; 250 g ai/ha): 99
- Pre-emerge Herbicidal Activity RICE [11, 24]: 50
- Post-emerge Herbicidal Activity ECHCG ([12]; 63 g ai/ha): 30
- Post-emerge Herbicidal Activity ECHCG ([12]; 250 g ai/ha): 80
- Post-emerge Herbicidal Activity SETVI ([13]; 63 g ai/ha): 0
- Post-emerge Herbicidal Activity SETVI ([13]; 250 g ai/ha): 50
- Post-emerge Herbicidal Activity IPOHE ([14]; 63 g ai/ha): 90
- Post-emerge Herbicidal Activity IPOHE ([14]; 250 g ai/ha): 100
- Post-emerge Herbicidal Activity SORHA ([15]; 63 g ai/ha): 10
- Post-emerge Herbicidal Activity SORHA ([15]; 250 g ai/ha): 90
- Post-emerge Herbicidal Activity CHEAL ([16]; 63 g ai/ha): 100
- Post-emerge Herbicidal Activity CHEAL ([16]; 250 g ai/ha): 100
- Post-emerge Herbicidal Activity DIGSA ([17]; 63 g ai/ha): 0
- Post-emerge Herbicidal Activity DIGSA ([17]; 250 g ai/ha): 70
- Post-emerge Herbicidal Activity AMARE ([18]; 63 g ai/ha): 30
- Post-emerge Herbicidal Activity AMARE ([18]; 250 g ai/ha): 100
- Post-emerge Herbicidal Activity CASOB ([19]; 63 g ai/ha): 50
- Post-emerge Herbicidal Activity CASOB ([19]; 250 g ai/ha): 95
- Post-emerge Herbicidal Activity ABUTH ([20]; 63 g ai/ha): 100
- Post-emerge Herbicidal Activity ABUTH ([20]; 250 g ai/ha): 100
- Post-emerge Herbicidal Activity CORN ([21]; 63 g ai/ha): 10
- Post-emerge Herbicidal Activity CORN ([21]; 250 g ai/ha): 100
- Post-emerge Herbicidal Activity RICE ([22]; 63 g ai/ha): 20
- Post-emerge Herbicidal Activity RICE ([22]; 250 g ai/ha): 80

Structure (SMILES): Nc1c(O)c(Cl)cc(F)c1N1C(=O)C2CCCCN2C1=S (single isomer, unassigned) [12-3]
- Pre-emerge herbicidal activity, phytotoxicity rating AMARE ([1]; 63 g ai/ha): 95
- Pre-emerge herbicidal activity, phytotoxicity rating AMARE ([1]; 250 g ai/ha): 100
- Pre-emerge herbicidal activity, phytotoxicity rating ECHCG ([2]; 63 g ai/ha): 0
- Pre-emerge herbicidal activity, phytotoxicity rating ECHCG ([2]; 250 g ai/ha): 0
- Pre-emerge herbicidal activity, phytotoxicity rating SETVI ([3]; 63 g ai/ha): 0
- Pre-emerge herbicidal activity, phytotoxicity rating SETVI ([3]; 250 g ai/ha): 30
- Pre-emerge herbicidal activity, phytotoxicity rating IPOHE ([4]; 63 g ai/ha): 0
- Pre-emerge herbicidal activity, phytotoxicity rating IPOHE ([4]; 250 g ai/ha): 90
- Pre-emerge herbicidal activity, phytotoxicity rating SORHA ([5]; 63 g ai/ha): 0
- Pre-emerge herbicidal activity, phytotoxicity rating SORHA ([5]; 250 g ai/ha): 0
- Pre-emerge herbicidal activity, phytotoxicity rating CHEAL ([6]; 63 g ai/ha): 100
- Pre-emerge herbicidal activity, phytotoxicity rating CHEAL ([6]; 250 g ai/ha): 100
- Pre-emerge herbicidal activity, phytotoxicity rating DIGSA ([7]; 63 g ai/ha): 0
- Pre-emerge herbicidal activity, phytotoxicity rating DIGSA ([7]; 250 g ai/ha): 30
- Pre-emerge herbicidal activity, phytotoxicity rating CASOB ([8]; 63 g ai/ha): 30
- Pre-emerge herbicidal activity, phytotoxicity rating CASOB ([8]; 250 g ai/ha): 70
- Pre-emerge herbicidal activity, phytotoxicity rating ABUTH ([9]; 63 g ai/ha): 100
- Pre-emerge herbicidal activity, phytotoxicity rating ABUTH ([9]; 250 g ai/ha): 100
- Pre-emerge phytotoxicity rating, crop damage CORN ([10]; 63 g ai/ha): 0
- Pre-emerge phytotoxicity rating, crop damage CORN ([10]; 250 g ai/ha): 0
- Pre-emerge phytotoxicity rating, crop damage RICE ([11]; 63 g ai/ha): 10
- Pre-emerge phytotoxicity rating, crop damage RICE ([11]; 250 g ai/ha): 20
- Post-emerge Herbicidal Activity ECHCG ([12]; 63 g ai/ha): 0
- Post-emerge Herbicidal Activity ECHCG ([12]; 250 g ai/ha): 10
- Post-emerge Herbicidal Activity SETVI ([13]; 63 g ai/ha): 0
- Post-emerge Herbicidal Activity SETVI ([13]; 250 g ai/ha): 0
- Post-emerge Herbicidal Activity IPOHE ([14]; 63 g ai/ha): 50
- Post-emerge Herbicidal Activity IPOHE ([14]; 250 g ai/ha): 90
- Post-emerge Herbicidal Activity SORHA ([15]; 63 g ai/ha): 0
- Post-emerge Herbicidal Activity SORHA ([15]; 250 g ai/ha): 50
- Post-emerge Herbicidal Activity CHEAL ([16]; 63 g ai/ha): 90
- Post-emerge Herbicidal Activity CHEAL ([16]; 250 g ai/ha): 100
- Post-emerge Herbicidal Activity DIGSA ([17]; 63 g ai/ha): 0
- Post-emerge Herbicidal Activity DIGSA ([17]; 250 g ai/ha): 0
- Post-emerge Herbicidal Activity AMARE ([18]; 63 g ai/ha): 95
- Post-emerge Herbicidal Activity AMARE ([18]; 250 g ai/ha): 99
- Post-emerge Herbicidal Activity CASOB ([19]; 63 g ai/ha): 20
- Post-emerge Herbicidal Activity CASOB ([19]; 250 g ai/ha): 80
- Post-emerge Herbicidal Activity ABUTH ([20]; 63 g ai/ha): 90
- Post-emerge Herbicidal Activity ABUTH ([20]; 250 g ai/ha): 90
- Post-emerge Herbicidal Activity CORN ([21]; 63 g ai/ha): 5
- Post-emerge Herbicidal Activity CORN ([21]; 250 g ai/ha): 10
- Post-emerge Herbicidal Activity RICE ([22]; 63 g ai/ha): 0
- Post-emerge Herbicidal Activity RICE ([22]; 250 g ai/ha): 5
